# Measurements reported in patent publication US20220370606A1, “Combination Treatments Of Cancer Comprising A TLR Agonist” (Pfizer Inc., priority 2018, published 2022).
# Tests used:
# Assay type in all cases: in vivo, mouse
# B16F10 melanoma tumors [1] = experiment: Example 1: TLR3 agonist with anti-OX40 and/or anti-4-1BB antibody, murine B16F10 melanoma model; conditions: poly(I:C) 2.5 mg/kg it x1 day 9, anti-OX40 5 mg/kg, anti-4-1BB 3 mg/kg ip x3
# Procedure: This example illustrates the therapeutic activity of a TLR3 agonist in combination with one or both of: i) an agonist anti-OX40 antibody and ii) an agonist anti-4-1BB antibody in a murine B16F10 melanoma model.
# (§1) Six to eight week old female C57BL/6 mice were purchased from the Jackson Laboratories. All animals were housed in a pathogen free vivarium facility at Pfizer and experiments were conducted according to the protocols in accordance with the Institutional Animal Care and Use Committee (IACUC) guidelines.
# (§2) The B16F10 melanoma cell line was purchased from American Type Culture Collection (ATCC). Cells were cultured in Dulbecco's Modified Eagle's Medium (DMEM) supplemented with 10% fetal bovine serum (FBS), 2 mM L-glutamine at 37° C. in 5% carbon dioxide (CO2), and IMPACT-tested for pathogens at Research Animal Diagnostic Laboratory (RADIL) (Columbia, Mo.). Pathogen-free cells growing in an exponential growth phase were harvested and used for tumor inoculation.
# (§3) The TLR3 agonist was polyinosine-polycytidylic acid [poly(I:C)], high molecular weight [a synthetic analog of double-stranded RNA (dsRNA)], purchased from InvivoGen. Poly(I:C) was dosed at 2.5 mg/kg, in phosphate buffered saline (PBS) (Life Technologies), intratumorally (it) for one dose 9 days after tumor inoculation.
# (§4) Therapeutic mouse anti-mouse 4-1BB mAb (mouse immunoglobulin G1 [mIgG1]), derived from the parental clone MAB9371 (R&D Systems), was prepared in-house. Therapeutic mouse anti-OX40 antibodies with the mIgG1 isotype (anti-OX40 mIgG1) were derived from parental clone OX86 in house. Anti-OX40 antibody and anti-4-1BB antibodies were dosed at 5 mg/kg and 3 mg/kg, respectively, in phosphate buffered saline (PBS) (Life Technologies), and dosed at 0.2 mL per mouse intraperitoneally (ip) for 3 doses 3 to 4 days apart.
# C57BL/6 mice were inoculated subcutaneously at the right flank with 0.3 x 10^6 B16F10 cells in 0.1 mL of PBS. When tumors reached target size, mice were randomized into treatment groups. Treatment was started on the same day as randomization. Tumor size was measured 3-4 times weekly in 2 dimensions using a caliper, and the volume was calculated in cubic millimeters using the formula: V=0.5 L×W^2 where L is the longest diameter of the tumor and W is the diameter perpendicular to L. Body weight was recorded weekly.
# Results are shown in FIGS. 1A-1H and summarized in Table 1 below [mean tumor size±standard deviation (SD)]. Statistical analyses were performed using GraphPad Prism 6.0. 2-way ANOVA was applied to compare the statistical differences among multiple groups relative to the isotype control or other treatment groups. P <0.05 was considered as significant difference. Tumor measurements are in mm^3. For most treatment groups, more days post-tumor inoculation (also referred to as “days post implantation”) are shown in FIGS. 1A-1 H than in the corresponding information in Table 1 (due to the reduction in the number of mice in most groups over the course of the study, and the increase in SD with a reduced number of mice).
# B16F10 melanoma tumors [2] = experiment: Example 3A: TLR3 agonist with anti-PD-1, anti-OX40, anti-4-1BB antibodies, murine B16F10 melanoma model; conditions: poly(I:C) 2.5 mg/kg it x1 day 9, anti-PD-1 15, anti-OX40 5, anti-4-1BB 3 mg/kg ip x3
# From the text: This example illustrates the therapeutic activity of a TLR3 agonist in combination with i) an antagonist anti-PD-1 antibody; ii) an antagonist anti-PD-1 antibody and an agonist anti-OX40 antibody; iii) an antagonist anti-PD-1 antibody and an agonist anti-4-1-BB antibody; and iv) an antagonist anti-PD-1 antibody, an agonist anti-4-1-BB antibody, and an agonist anti-OX40 antibody in a murine B16F10 melanoma model.
# as §1
# The B16F10 melanoma cell line was purchased from American Type Culture Collection (ATCC). Cells were cultured in Dulbecco's Modified Eagle's Medium (DMEM) supplemented with 10% fetal bovine serum (FBS), 2 mM L-glutamine at 37° C. in 5% carbon dioxide (CO2), and IMPACT-tested for pathogens at Research Animal Diagnostic Laboratory (RADIL) (Columbia, MO). Pathogen-free cells growing in an exponential growth phase were harvested and used for tumor inoculation.
# as §3
# as §4, with “in house. Therapeutic mouse anti-mouse PD-1 mAb (mIgG1) was prepared in-house. Anti-PD-1, anti-OX40 antibody and” for “in house. Anti-OX40 antibody and”, “dosed at 15 mg/kg, 5 mg/kg” for “dosed at 5 mg/kg”
# C57BL/6 mice were inoculated subcutaneously at the right flank with 0.3×10^6 B16F10 cells in 0.1 mL of PBS. When tumors reached target size, mice were randomized into treatment groups. Treatment was started on the same day as randomization. Tumor size was measured 3-4 times weekly in 2 dimensions using a caliper, and the volume was calculated in cubic millimeters using the formula: V=0.5 L×W^2 where L is the longest diameter of the tumor and W is the diameter perpendicular to L. Body weight was recorded weekly.
# Results from Example 3A are shown in FIGS. 3A-3L and summarized in Table 3 below [mean tumor size±standard deviation (SD)]. Statistical analyses were performed using GraphPad Prism 6.0. 2-way ANOVA was applied to compare the statistical differences among multiple groups relative to the isotype control or other treatment groups. P<0.05 was considered as significant difference. Tumor measurements are in mm^3. For most treatment groups, more days post-tumor inoculation (also referred to as “days post implantation”) are shown in FIGS. 3A-3L than in the corresponding information in Table 3 (due to the reduction in the number of mice in most groups over the course of the study, and the increase in SD with a reduced number of mice).
# [3] = tested on: dendritic cells in the spleen (CD11c+/CD11b+/CD8+ cells); experiment: Example 5: activated dendritic cells in the spleen of B16F10 tumor mice (FACS); conditions: 24 hours after treatment, 5 mg/kg, mean from 5 mice
# Procedure: (§5) This example illustrates activation of immune cells in a mouse tumor model in response to a TLR3 or TLR9 agonist.
# as §1, §2
# (§6) The TLR3 agonist was polyinosine-polycytidylic acid [poly(I:C)], high molecular weight [a synthetic analog of double-stranded RNA (dsRNA)], purchased from InvivoGen. The TLR9 agonist was CpG24555
# (§7) On day 0, C57BL/6 mice were inoculated subcutaneously at the right flank with 5×10^5 B16F10 cells in PBS. […] The treatment groups were 1) PBS (control); 2) poly(I:C) (TLR3 agonist); 3) CpG24555 (TLR9 agonist). Treatment was started on the same day as randomization. Poly(I:C) and CpG24555 were dosed at 5 mg/kg, in phosphate buffered saline (PBS) (Life Technologies).
# (§8) 24 hours after treatment, the mice were euthanized and their spleen, draining lymph nodes, and B16F10 tumor were harvested. The harvested spleen, draining lymph nodes, and B16F10 tumor were dissociated to single cell suspensions, and then stained for evaluation of multiple markers by FACS analysis. To evaluate dendritic cell activation, cells were incubated with anti-CD11c, anti-CD11b, and anti-CD8 mAbs, and additionally one of anti-CD40, anti-CD86, or anti-PD-L1 mAbs. To evaluate effector T cell activation, cells were incubated with anti-CD8 and anti-CD44 mAbs, and additionally one of anti-OX40 or anti-4-1BB mAbs. […]
# [4] = tested on: dendritic cells in the draining lymph nodes (CD11c+/CD11b+/CD8+ cells); experiment: Example 5: activated dendritic cells in the draining lymph nodes of B16F10 tumor mice (FACS); conditions: 24 hours after treatment, 5 mg/kg, mean from 5 mice
# Procedure: as §5, §1, §2, §6, §7, §8
# [5] = tested on: effector T cells in the tumor (TILs) (CD8+/CD44+ cells); experiment: Example 5: activated effector T cells in the tumor (TILs) of B16F10 tumor mice (FACS); conditions: 24 hours after treatment, 5 mg/kg, mean from 5 mice
# Procedure: as §5, §1, §2, §6
# On day 0, C57BL/6 mice were inoculated subcutaneously at the right flank with 5×10^5 B16F10 cells in PBS. […] The treatment groups were 1) PBS (control); 2) poly(I:C) (TLR3 agonist); 3) CpG24555 (TLR9 agonist). Treatment was started on the same day as randomization. […]
substance,measurement,setting,value
polyinosine-polycytidylic acid [TLR3 agonist],Mean Tumor Size,B16F10 melanoma tumors [1]; day 9 post-tumor inoculation,76 mm^3
same,Mean Tumor Size,B16F10 melanoma tumors [1]; day 10 post-tumor inoculation,116 mm^3
same,Mean Tumor Size,B16F10 melanoma tumors [1]; day 12 post-tumor inoculation,151 mm^3
same,Mean Tumor Size,B16F10 melanoma tumors [1]; day 14 post-tumor inoculation,196 mm^3
same,Mean Tumor Size,B16F10 melanoma tumors [1]; day 16 post-tumor inoculation,309 mm^3
same,Mean Tumor Size,B16F10 melanoma tumors [1]; day 18 post-tumor inoculation,405 mm^3
same,Mean Tumor Size,B16F10 melanoma tumors [1]; day 20 post-tumor inoculation,678 mm^3
same,Mean Tumor Size,B16F10 melanoma tumors [2]; day 9 post-tumor inoculation,74 mm^3
same,Mean Tumor Size,B16F10 melanoma tumors [2]; day 13 post-tumor inoculation,156 mm^3
same,Mean Tumor Size,B16F10 melanoma tumors [2]; day 15 post-tumor inoculation,236 mm^3
same,Mean Tumor Size,B16F10 melanoma tumors [2]; day 17 post-tumor inoculation,349 mm^3
same,Mean Tumor Size,B16F10 melanoma tumors [2]; day 20 post-tumor inoculation,796 mm^3
same,Mean Tumor Size,B16F10 melanoma tumors [2]; day 22 post-tumor inoculation,1206 mm^3
same,% CD40+ of CD11c+/CD11b+/CD8+ cells (activated dendritic cells),[3],20%
same,% CD86+ of CD11c+/CD11b+/CD8+ cells (activated dendritic cells),[3],22.2%
same,% PD-L1+ of CD11c+/CD11b+/CD8+ cells (activated dendritic cells),[3],23%
same,% CD40+ of CD11c+/CD11b+/CD8+ cells (activated dendritic cells),[4],9.9%
same,% CD86+ of CD11c+/CD11b+/CD8+ cells (activated dendritic cells),[4],7.5%
same,% PD-L1+ of CD11c+/CD11b+/CD8+ cells (activated dendritic cells),[4],9%
same,% 4-1BB+ of CD8+/CD44+ cells (activated effector T cells),[5],36.8%
same,% OX-40+ of CD8+/CD44+ cells (activated effector T cells),[5],55.3%
